Patent US8927130B2, “Electrolyte for redox flow battery and redox flow battery including the same” (Samsung Electronics Co., Ltd., priority 2011, dated 2015)

Assay: Cyclic voltammetry of electrolytes for 100 cycles
Assay type: physicochemical
Conditions: in the electrolytes of Examples 1 and 2 (GBL, 0.5 M TEABF4), cyclic voltammetry 100 cycles
Method: A current value as a function of potential was measured for 100 cycles by using each of the electrolytes of Examples 1 and 2, at a potential scan rate of 10 mV/s and in a potential scan range of about −2 V to about 1.25 V. A cell for measuring the cyclic voltammogram included an Ag/Ag^+ electrode in which 0.3 M of AgNO3 was dissolved in acetonitrile as a solvent as a reference electrode, carbon felt as a working electrode, and platinum as a counter electrode. The measurement results are illustrated in FIGS. 6A and 6B.

## O=S(=O)([N-]S(=O)(=O)C(F)(F)F)C(F)(F)F.O=S(=O)([N-]S(=O)(=O)C(F)(F)F)C(F)(F)F.[Ni+2].c1ccc(-c2ccccn2)nc1.c1ccc(-c2ccccn2)nc1.c1ccc(-c2ccccn2)nc1 [Preparation Example 1, Ni(bpy)3(TFSI)2]
  stability of the redox couple of the metal salt in the electrolyte: stable
